# Key:
# [1] = test system: painful peripheral neuropathy; conditions: rat model of painful peripheral neuropathy; cited from earlier work
# [2] = LC/MS quantification of felbamate and metabolites in patient urine; assay type: in vivo, human; conditions: highest value; patient with total daily dose of 6.0 grams of felbamate
# Description: Preparation of Patient Urine Samples.
# Urine samples were obtained from patient volunteers undergoing felbamate therapy for control of epileptic seizures and under the care of physicians at either the University of Virginia (Charlottesville, Va.) or the EpiCare Center (Memphis, Tenn.). Urine samples were diluted four fold with distilled water (this was done prior to overnight shipment for samples requiring shipping) and placed in an orbital shaking water bath for ˜20 min at 37° C. to insure that all of the analytes were in solution. 500 μL of this diluted sample were removed and added to 100 μL of a mixture of the four deuterated internal standards. […] After mixing, 200 μL were removed and added to 20 μL of 20% H0Ac. […] This fraction was then analyzed by LC/MS without further manipulation.
# LC/MS Analysis of Urine Samples for Metabolite Quantification.
# LC/MS analysis was performed using a Waters 2690 HPLC equipped with an autosampler and a Waters 486 tunable absorbance detector. […] The post-column flow was directed through a Waters 486 tunable absorbance detector (10 μL flow cell, λ=214 nm) which was used for qualitative assessment of the sample and not for quantitation. […]
# Quantification was achieved by integration of the peaks from the mass chromatogram for each analyte using software (Navigator 1.1) provided with the LCQ. […]
# [3] = Stability of oxazinane-dione at relevant pH; assay type: physicochemical
# Source text: It is anticipated, therefore, that the oxazinane-dione 9 is responsible for some aspects of felbamate's efficacy in vivo. As patients undergoing felbamate therapy for seizure control ingest large quantities of felbamate (grams per day), even a 1-2% conversion to a pharmacologically active metabolite could have significant effects. […] In light of the possibility that the oxazinane-dione 9 could be a metabolic precursor to the major human metabolite, acid carbamate 4, it may be formed in significant quantities (the acid carbamate was reported to represent ˜ 12% of a dose). […] Also included in this class are cyclic congeners 21 and 22, which may be formed from felbamate derivatives (see scheme II). Also included is 20, which may be an unknown metabolite of felbamate 1 and could be produced from felbamate derivative 12 by the cytochrome P450 metabolism.
SMILES,effect on measures of pain (in words) [1],amount of felbamate excreted per mL of urine [2],stability [3]
"NC(=O)OCC(COC(N)=O)c1ccccc1 [felbamate, 2-phenyl-1,3-propanediol dicarbamate]",significant reductions in all measures of pain,"10,064±515 nMoles/mL",
O=C1NC(=O)C(c2ccccc2)CO1 (stereo not drawn) [oxazinane-dione 9],,,unstable
